Data from article PMC4464647, “ANO1 (TMEM16A) in pancreatic ductal adenocarcinoma (PDAC)” (Pflugers Archiv, 2014).
d = 2'-deoxy (DNA)

Target: T1, CaCC current (Homo sapiens, UniProt Q5XXA6)
T1 construct: Whole-cell patch-clamp recordings identified large Ca^2+ and voltage-dependent Cl^− currents in PDAC cells; endogenous in cells; host or cells: Capan-1, AsPC-1, BxPC-3 (human PDAC cell lines, ATCC)
T1 sequence (Q5XXA6 1-986): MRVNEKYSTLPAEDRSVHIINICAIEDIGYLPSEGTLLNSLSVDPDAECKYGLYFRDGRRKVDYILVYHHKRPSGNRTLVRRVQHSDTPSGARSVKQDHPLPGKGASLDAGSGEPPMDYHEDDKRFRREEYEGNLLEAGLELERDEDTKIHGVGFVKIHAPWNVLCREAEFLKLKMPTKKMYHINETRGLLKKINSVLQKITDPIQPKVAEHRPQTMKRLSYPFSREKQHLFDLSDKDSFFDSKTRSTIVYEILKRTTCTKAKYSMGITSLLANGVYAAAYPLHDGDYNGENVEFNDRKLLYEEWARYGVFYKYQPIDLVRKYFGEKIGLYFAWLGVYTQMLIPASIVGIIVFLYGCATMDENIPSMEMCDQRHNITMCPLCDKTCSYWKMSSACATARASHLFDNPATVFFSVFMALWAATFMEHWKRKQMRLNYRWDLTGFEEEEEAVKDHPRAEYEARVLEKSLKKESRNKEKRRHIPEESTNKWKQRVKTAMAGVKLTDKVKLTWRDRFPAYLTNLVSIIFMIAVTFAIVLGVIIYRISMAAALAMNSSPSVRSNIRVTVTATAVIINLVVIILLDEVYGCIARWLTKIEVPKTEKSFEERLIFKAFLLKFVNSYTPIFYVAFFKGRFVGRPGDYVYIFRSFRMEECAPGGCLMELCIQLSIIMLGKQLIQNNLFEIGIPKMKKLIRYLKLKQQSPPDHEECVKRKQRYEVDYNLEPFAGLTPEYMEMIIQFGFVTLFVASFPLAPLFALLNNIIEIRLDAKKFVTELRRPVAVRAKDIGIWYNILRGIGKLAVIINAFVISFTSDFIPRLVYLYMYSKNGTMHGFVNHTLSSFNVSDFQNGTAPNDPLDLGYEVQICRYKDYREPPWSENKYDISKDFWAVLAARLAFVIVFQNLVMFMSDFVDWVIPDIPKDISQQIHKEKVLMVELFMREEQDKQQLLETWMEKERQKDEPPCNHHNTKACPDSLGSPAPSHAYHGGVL
Assay: Whole-cell patch-clamp of CaCC currents in PDAC cells, 1 μM Ca2+ in pipette solution
Format: cell-based
Settings: for decrease of CaCC currents: siRNA 50 nM, compared to scrambled siRNA (MOCK)
Protocol: Cells were grown on poly-L-lysine coated coverslips. For knockdown experiments, cells were transfected with siRNA targeting ANO1 or scrambled siRNA shortly after complete attachment of the cells (approx. 3 h after plating). Currents were measured 36–48 h after transfection. Whole-cell patch-clamp recordings were performed using the Axopatch 200B amplifier interfaced to a Digidata 1440A controlled by pClamp10 software (Molecular Devices, USA). Analogue signals were acquired at 2.5 kHz and filtered at 1 kHz. […] An agar bridge made of 3 % agar and 97 % of the bath solution containing NMDG-Cl (below) was used as reference electrode. Current activations were recorded from an output holding potential, V out = 0 mV with ramp protocols spanning from −100 to 100 mV over 1 s and run continuously with 15-s intervals. Step protocols between −100 to 120 mV were generated from V out = 0 mV with step increments of 20 mV and lengths of 2 s. Liquid junction potentials (V lj) were estimated as described in [10] with membrane potentials calculated as, V m = V out − V lj. Series resistance was compensated by 60–70 %. All recordings were performed at room temperature (18–23 °C). Instantaneous currents were measured 1 ms after each voltage step. The data was fitted using the Goldman–Hodgkin–Katz (GHK) current equation.1 ICl^−=Pz^2F^2V/RTCo−Cie^zFV/RT/1−e^zFV/RT
One micromolar free Ca^2+ pipette solution include the following (in mM): 100 CsAsp, 40 CsCl, 4.34 CaCl2, 4 Na2ATP, 1 MgCl2, 5 EGTA, 10 HEPES, pH 7.2, osmolality 295 mosmol/kg or 0 μM free Ca^2+ solution containing no CaCl2 and 10 mM EGTA. Standard bath solution include the following (in mM): 150 NaCl, 1.5 CaCl2, 1 MgCl2, 10 glucose, 10 HEPES, pH 7.4, osmolality 315 mosmol/kg (adjusted with D-mannitol). Isotonic solution include the following (in mM): 85 NaCl, 2 MgCl2, 1.5 CaCl2, 10 glucose, 10 HEPES, pH 7.4, of osmolality 315 mosmol/kg (adjusted with D-mannitol). The hypotonic solution with osmolality of 210 mosmol/kg was obtained by omitting D-mannitol from the isotonic solution. For experiments testing efficiency of an inhibitor, NaCl was replaced by N-methyl-D-glucamine chloride (NMDG-Cl) after seal formation. All osmolalities were measured in a Wescor Vapro model 5520 osmometer (Wescor Inc., USA) calibrated by the manufacturer’s Optimol standard solutions.
Whole-cell patch-clamp recordings with 1 μM Ca^2+ in pipette solution. a Representative current traces measured in Capan-1 cells upon exposure to different inhibitors. b Quantification of CaCC currents at +67 mV recorded with inhibitors compared to currents in presence of DMSO; currents of siANO1 cells were compared to those of MOCK transfected cells. c Steady-state I–V relationships of cells transfected with either scrambled siRNA (MOCK) or siRNA targeting ANO1. d Densitometric quantification of Western blot analysis of siRNA knockdown. β-Actin was used as a loading control. (n) = number of individual experiments

For `CCc1c(C)nc(SCC(=O)Nc2nc(-c3ccc(OC)cc3)cs2)[nH]c1=O` [T16Ainh-A01, 2-[(5-Ethyl-1,6-dihydro-4-methyl-6-oxo-2-pyrimidinyl)thio]-N-[4-(4-methoxyphenyl)-2-thiazolyl]acetamide], the inhibition at 20 µM (ASPC1, AsPC-1 cells, inhibitor 20 μM, at +67 mV, vs DMSO) was 29 ± 2%, the “inhibition of CaCC current” value (BxPC-3 cells, inhibitor 20 μM, at +67 mV, vs DMSO) was “ineffective” and the inhibition at 20 µM (Capan-1 cells, inhibitor 20 μM, at +67 mV, vs DMSO) was 43 ± 8%.

In the case of “siRNA targeting ANO1: Predesigned siRNA oligo from Sigma-Aldrich, 5′-CCUUCAACGUCAGUGACUU[dT][dT]-3′, 5′-AAGUCACUGACGUUGAAGG[dT][dT]-3′ (RNA, 3' dTdT, backbone not given here)”, the “decrease of CaCC currents” value (AsPC-1 cells) is reported as 89 ± 51%, the “decrease of CaCC currents” value (BxPC-3 cells) is reported as 84 ± 23% and the “decrease of CaCC currents” value (Capan-1 cells) is reported as 88 ± 42%.
